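Each compound was tested at five concentrations against cells in 96-well plates for 48 hours. GI50 marks 50% less growth.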 The source made the active and inactive calls. Cut-off read from the data, not from the text of the source: active = GI50 up to about 1.1 µM and inactive = higher.
Columns and labels:
Assay in all cases: NCI-60 cell line screen, 48 h
[1] = tested on: A498
[2] = tested on: COLO 205
[3] = tested on: DLD-1
[4] = tested on: HCT-15
[5] = tested on: HL-60
[6] = tested on: HT-29
[7] = tested on: LOX IMVI
[8] = tested on: MOLT-4
[9] = tested on: Malme-3M
[10] = tested on: OVCAR-4
[11] = tested on: OVCAR-8
[12] = tested on: SF-268
[13] = tested on: SK-MEL-28
[14] = tested on: SNB-19
[15] = tested on: SW-620
[16] = tested on: U-251
[17] = tested on: UACC-257
[18] = tested on: BT-549
[19] = tested on: DU-145
[20] = tested on: MCF7

C1OC1CO[C@@H]1CO[C@H]2[C@@H]1OC[C@H]2OCC1CO1 (some centres undefined)
GI50 [1]: > 100 µM (inactive) | GI50 [2]: > 100 µM (inactive) | GI50 [3]: > 100 µM (inactive) | GI50 [4]: > 100 µM | GI50 [5]: 82.8 µM (inactive) | GI50 [6]: > 100 µM (inactive) | GI50 [7]: > 100 µM (inactive) | GI50 [8]: 78.2 µM (inactive) | GI50 [9]: > 100 µM (inactive) | GI50 [10]: > 100 µM (inactive) | GI50 [11]: > 100 µM (inactive) | GI50 [12]: > 100 µM (inactive) | GI50 [13]: > 100 µM (inactive) | GI50 [14]: > 100 µM (inactive) | GI50 [15]: > 100 µM (inactive) | GI50 [16]: > 100 µM (inactive) | GI50 [17]: > 100 µM (inactive)

O=C(COc1ccc2c(=O)cc(-c3ccc(Cl)cc3)oc2c1)N1CCN(c2ccccc2)CC1
GI50 [1]: 5.69 µM (inactive) | GI50 [2]: 4.37 µM (inactive) | GI50 [3]: > 100 µM (inactive) | GI50 [4]: > 100 µM | GI50 [5]: 59.3 µM (inactive) | GI50 [6]: > 100 µM (inactive) | GI50 [7]: > 100 µM (inactive) | GI50 [8]: 6.56 µM (inactive) | GI50 [9]: > 100 µM (inactive) | GI50 [10]: > 100 µM (inactive) | GI50 [11]: > 100 µM (inactive) | GI50 [12]: > 100 µM (inactive) | GI50 [13]: > 100 µM (inactive) | GI50 [14]: > 100 µM (inactive) | GI50 [15]: > 100 µM (inactive) | GI50 [16]: > 100 µM (inactive) | GI50 [17]: > 100 µM (inactive)

O=C(/C=C/c1cc(Cl)cc(Cl)c1O)c1cccc(O)c1
GI50 [1]: > 100 µM (inactive) | GI50 [2]: 18.6 µM (inactive) | GI50 [3]: 38.8 µM (inactive) | GI50 [4]: 41.5 µM | GI50 [5]: 29.1 µM (inactive) | GI50 [6]: 93.8 µM (inactive) | GI50 [7]: 12.6 µM (inactive) | GI50 [8]: 20.4 µM (inactive) | GI50 [9]: 28.6 µM (inactive) | GI50 [10]: 40.2 µM (inactive) | GI50 [11]: 32.1 µM (inactive) | GI50 [12]: 40.2 µM (inactive) | GI50 [13]: 43.5 µM (inactive) | GI50 [14]: 41.9 µM (inactive) | GI50 [15]: 54.5 µM (inactive) | GI50 [16]: 25.5 µM (inactive) | GI50 [17]: > 100 µM (inactive)

O=C1N[C@@H](O)[C@@H]2ON=C(c3ccccc3)[C@H]12
GI50 [1]: > 100 µM (inactive) | GI50 [2]: > 100 µM (inactive) | GI50 [3]: > 100 µM (inactive) | GI50 [4]: > 100 µM | GI50 [5]: > 100 µM (inactive) | GI50 [6]: > 100 µM (inactive) | GI50 [7]: > 100 µM (inactive) | GI50 [8]: > 100 µM (inactive) | GI50 [9]: > 100 µM (inactive) | GI50 [10]: > 100 µM (inactive) | GI50 [11]: > 100 µM (inactive) | GI50 [12]: > 100 µM (inactive) | GI50 [13]: > 100 µM (inactive) | GI50 [14]: > 100 µM (inactive) | GI50 [15]: > 100 µM (inactive) | GI50 [16]: > 100 µM (inactive) | GI50 [17]: > 100 µM (inactive)

CCCCCCCCCCCC(=O)OC[C@@H](C[As](=O)(O)O)OC(=O)CCCCCCCCCCC
GI50 [1]: 11.9 µM (inactive) | GI50 [18]: 3.48 µM (inactive) | GI50 [2]: 17 µM (inactive) | GI50 [3]: 18 µM (inactive) | GI50 [19]: 18.1 µM (inactive) | GI50 [4]: 9.04 µM | GI50 [5]: 2.95 µM (inactive) | GI50 [6]: 9.82 µM (inactive) | GI50 [7]: 4.24 µM (inactive) | GI50 [20]: 2.8 µM (inactive) | GI50 [8]: 5.51 µM (inactive) | GI50 [9]: 3.41 µM (inactive) | GI50 [10]: 14.2 µM (inactive) | GI50 [11]: 9.98 µM (inactive) | GI50 [12]: 5.15 µM (inactive) | GI50 [13]: 4.54 µM (inactive) | GI50 [14]: 3.07 µM (inactive) | GI50 [15]: 15 µM (inactive) | GI50 [16]: 2.14 µM (inactive) | GI50 [17]: 16.4 µM (inactive)

COc1cc(C=O)c(-c2cc3c(cc2C2(C)OCCS2)OCO3)c(OC)c1OC (centres undefined)
GI50 [1]: 7.85 µM (inactive) | GI50 [2]: 4.24 µM (inactive) | GI50 [3]: 16.7 µM (inactive) | GI50 [4]: 8.22 µM | GI50 [5]: 8.07 µM (inactive) | GI50 [6]: 6.68 µM (inactive) | GI50 [7]: 9.12 µM (inactive) | GI50 [8]: 12.5 µM (inactive) | GI50 [9]: 12 µM (inactive) | GI50 [10]: 17.9 µM (inactive) | GI50 [11]: 19.1 µM (inactive) | GI50 [12]: 36.5 µM (inactive) | GI50 [13]: 4.4 µM (inactive) | GI50 [14]: 30.2 µM (inactive) | GI50 [15]: 7.94 µM (inactive) | GI50 [16]: 15.5 µM (inactive) | GI50 [17]: 8.83 µM (inactive)

O=C(/C=C1/Nc2ccc([N+](=O)[O-])cc2NC1O)c1cccc([N+](=O)[O-])c1 (centres undefined)
GI50 [1]: > 100 µM (inactive) | GI50 [2]: 12.1 µM (inactive) | GI50 [3]: 17.3 µM (inactive) | GI50 [4]: 23.5 µM | GI50 [5]: 32.8 µM (inactive) | GI50 [6]: 56.2 µM (inactive) | GI50 [7]: 22.2 µM (inactive) | GI50 [8]: 64.4 µM (inactive) | GI50 [9]: 38.4 µM (inactive) | GI50 [10]: 4.16 µM (inactive) | GI50 [11]: 19.1 µM (inactive) | GI50 [12]: 53.2 µM (inactive) | GI50 [13]: 39.8 µM (inactive) | GI50 [14]: > 100 µM (inactive) | GI50 [15]: 72.1 µM (inactive) | GI50 [16]: 21 µM (inactive) | GI50 [17]: 82.4 µM (inactive)

COC(=O)C1=C(C)N(NC(N)=O)C2(N)N(NC(N)=O)C(C)=C(C(=O)OC)C12C(=O)OC (centres undefined)
GI50 [1]: > 100 µM (inactive) | GI50 [2]: > 100 µM (inactive) | GI50 [3]: > 100 µM (inactive) | GI50 [4]: > 100 µM | GI50 [5]: > 100 µM (inactive) | GI50 [6]: > 100 µM (inactive) | GI50 [7]: > 100 µM (inactive) | GI50 [8]: > 100 µM (inactive) | GI50 [9]: > 100 µM (inactive) | GI50 [10]: > 100 µM (inactive) | GI50 [11]: > 100 µM (inactive) | GI50 [12]: > 100 µM (inactive) | GI50 [13]: > 100 µM (inactive) | GI50 [14]: > 100 µM (inactive) | GI50 [15]: > 100 µM (inactive) | GI50 [16]: > 100 µM (inactive) | GI50 [17]: > 100 µM (inactive)

Nc1nc2ncn(CC(O)CO)c2c(=S)[nH]1 (centres undefined)
GI50 [1]: > 100 µM (inactive) | GI50 [2]: > 100 µM (inactive) | GI50 [3]: > 100 µM (inactive) | GI50 [4]: > 100 µM | GI50 [5]: > 100 µM (inactive) | GI50 [6]: > 100 µM (inactive) | GI50 [7]: > 100 µM (inactive) | GI50 [9]: > 100 µM (inactive) | GI50 [10]: > 100 µM (inactive) | GI50 [11]: > 100 µM (inactive) | GI50 [12]: > 100 µM (inactive) | GI50 [13]: > 100 µM (inactive) | GI50 [14]: > 100 µM (inactive) | GI50 [15]: > 100 µM (inactive) | GI50 [16]: > 100 µM (inactive) | GI50 [17]: > 100 µM (inactive)

c1ccc(SC23C4C5C6C4C2C6C53)nc1 (centres undefined)
GI50 [1]: > 63.7 µM (inactive) | GI50 [2]: > 100 µM (inactive) | GI50 [3]: > 100 µM (inactive) | GI50 [4]: > 100 µM | GI50 [5]: 11.5 µM (inactive) | GI50 [6]: > 100 µM (inactive) | GI50 [7]: > 100 µM (inactive) | GI50 [8]: > 100 µM (inactive) | GI50 [9]: > 100 µM (inactive) | GI50 [10]: > 100 µM (inactive) | GI50 [11]: > 100 µM (inactive) | GI50 [12]: > 31.6 µM (inactive) | GI50 [13]: > 100 µM (inactive) | GI50 [14]: > 100 µM (inactive) | GI50 [15]: > 100 µM (inactive) | GI50 [16]: > 100 µM (inactive) | GI50 [17]: > 100 µM (inactive)

CCCCN(Cc1ccccc1)/C(=N/C#N)N(Cc1ccccc1)Cc1ccccc1
GI50 [1]: 36.6 µM (inactive) | GI50 [18]: 19.2 µM (inactive) | GI50 [2]: 15.7 µM (inactive) | GI50 [3]: 24.9 µM (inactive) | GI50 [19]: 34.7 µM (inactive) | GI50 [4]: 14.4 µM | GI50 [5]: 36.6 µM (inactive) | GI50 [6]: 10.9 µM (inactive) | GI50 [7]: 10.9 µM (inactive) | GI50 [20]: 16.1 µM (inactive) | GI50 [8]: > 100 µM (inactive) | GI50 [9]: 8.59 µM (inactive) | GI50 [10]: 15.8 µM (inactive) | GI50 [11]: 27.9 µM (inactive) | GI50 [12]: 18.8 µM (inactive) | GI50 [13]: 29 µM (inactive) | GI50 [14]: 20.7 µM (inactive) | GI50 [15]: 24.1 µM (inactive) | GI50 [16]: 17.1 µM (inactive) | GI50 [17]: 10.6 µM (inactive)

Cc1ccc(C2(O)CC(c3ccc([N+](=O)[O-])o3)=NN2C(=O)COc2ccc(Cl)cc2)cc1 (centres undefined)
GI50 [1]: 4.98 µM (inactive) | GI50 [2]: 3.62 µM (inactive) | GI50 [3]: 3.23 µM (inactive) | GI50 [4]: 3.1 µM | GI50 [5]: 1.75 µM (inactive) | GI50 [6]: 5.47 µM (inactive) | GI50 [7]: 4.59 µM (inactive) | GI50 [8]: 3.26 µM (inactive) | GI50 [9]: 11.6 µM (inactive) | GI50 [10]: 5.98 µM (inactive) | GI50 [11]: 4.63 µM (inactive) | GI50 [12]: 5.85 µM (inactive) | GI50 [13]: 9.77 µM (inactive) | GI50 [14]: 6.62 µM (inactive) | GI50 [15]: 3.12 µM (inactive) | GI50 [16]: 2.28 µM (inactive) | GI50 [17]: 4.91 µM (inactive)
